Measurements as given in the METLIN SMRT retention time set (Domingo-Almenara et al. 2019).

Experiment: gradient 5% acetonitrile 3 min, to 50% in 2 min, to 85% in 15 min, held 3 min, 100 µL/min
Conditions: column: Zorbax Extend-C18 2.1 x 50 mm; eluents: water / acetonitrile, 0.1% formic acid
Procedure, shortened: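 Retention time was recorded from adduct peaks, which were picked computationally and each inspected manually. Pure standards ran in mixtures of ~100 molecules on HPLC coupled to a quadrupole time-of-flight mass spectrometer, in positive and negative ionization mode, through a Zorbax Extend-C18 column (2.1 × 50 mm, 1.8 μm) at 100 μL/min. Eluents were water and acetonitrile, each with 0.1% formic acid.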

| SMILES | RP-LC retention time [s] |
| --- | --- |
| COc1cc(OC)cc(-c2nc(-c3cn(Cc4ccc(C)cc4)nn3)no2)c1 | 1090 |
| Fc1ccc(Cc2nc3nccc(-c4cccs4)n3n2)cc1 | 915 |
| Cc1nn(CC(=O)NCc2ccco2)c(=O)c2c(-n3cccc3)n(-c3ccccc3)nc12 | 881 |
| O=C(CSc1ccc(N2CCOCC2)nn1)Nc1ccc(F)cc1F | 669 |
| CC(C)OCCCNC(=O)Cn1c2ccccc2c2cnn(C)c(=O)c21 | 745 |
| COCCCNc1c(C(=O)OC)c(=O)[nH]c2c(Cl)cccc12 | 692 |
| CC(C)NC(=O)c1cc(-c2ccncc2)n[nH]1 | 553 |
| COc1ccc(N2C=C(C(=O)N3CCOCC3)S(=O)(=O)c3ccc(F)cc32)cc1Cl | 762 |
| Cn1c(=O)oc2cc(-c3noc(-c4ccccc4)n3)ccc21 | 1010 |
| CCCc1cc(N2CCN(C(=O)c3ccc(F)cc3)CC2)nc2nncn12 | 620 |
| Cc1cnc(SCc2ccc(Cl)cc2Cl)[nH]c1=O | 970 |
| CN(C)c1ccc(CNC(=O)C2(c3ccc(NS(C)(=O)=O)cc3)CCCCC2)cc1 | 672 |
| COC(=O)CNC(=O)NC(C)C(=O)N1CCc2ccccc21 (stereo unspecified) | 662 |
| CCc1nc2cc(-c3noc(-c4cccnc4SC)n3)ccc2o1 | 1220 |
| Cc1ccc(S(=O)(=O)N2CCC(n3cnnc3C)CC2)cc1Cl | 736 |
| CCOC(=O)C(NC(=O)Nc1c(-c2cccc(C)c2)nc2ccccn12)C(C)C (stereo unspecified) | 690 |
| CC(C(=O)NCCc1c[nH]c2ccc(Cl)cc12)C1CCN(S(=O)(=O)c2cccs2)CC1 (stereo unspecified) | 921 |
| O=C(NCc1cccc(Cl)c1)C1=C2CCCN2c2ccc(F)cc2S1(=O)=O | 933 |
| Cc1ccc(CNC(=O)C2(C)CCN(C(=O)Nc3ccc4c(c3)OCCO4)CC2)cc1 | 751 |
| Cc1cc(NC(=O)c2ccc3c(c2)CCCC3)n(C(C)C)n1 | 835 |
| CCCS(=O)(=O)NCc1ccc2c(c1)CCN2C(=O)CC | 686 |
| COC(=O)c1c(C)[nH]c(C(=O)N2CCC(CC(=O)NCc3cccc(C)c3)CC2)c1C | 748 |

| SMILES | RP-LC retention time [s] |
| --- | --- |
| Cc1ccc(Cn2cccc2C(=O)C(=O)Nc2ccc3c(c2)OCCO3)cc1 | 1090 |
| CCc1cccc(NC(=O)Cn2nc3cc(C)nc(Nc4ccc(C)cc4)n3c2=O)c1 | 1140 |
| CCOC(=O)c1cccc(Nc2c(-c3ccc(OC)cc3)nc3cnccn23)c1 | 668 |
| CC(C)CNC(=O)CN1CCN(Cc2cccc(Cl)c2)C1=O | 748 |
| COCc1cc(=O)n(CC(=O)Nc2cc(F)ccc2F)c(N2CCOCC2)n1 | 838 |
| COc1cc(NC(=O)N2CC(c3nc(C(C)C)nn3C)C2)cc(OC)c1 | 662 |
| CCCn1cc(CCNS(=O)(=O)c2ccc(Cl)c(Cl)c2)c2cccnc21 | 1000 |
| C/C(=N\Nc1nc2ccccc2s1)c1ccncn1 | 895 |
| O=C(N/N=C/c1ccc([N+](=O)[O-])o1)c1ccc(O)cc1 | 675 |
| O=C(NC1CC1)c1nnc(-c2ccc(S(=O)(=O)N3CCCCC3)cc2)o1 | 804 |
| COc1ccc(S(=O)(=O)Cc2nc(-c3ccc(Cl)cc3)no2)cc1 | 1030 |
| COc1ccccc1NS(=O)(=O)c1cc2n(c1)CCN(C(C)C)C2=O | 733 |
| Cn1nccc1-c1cccc(-c2noc(-c3ccsc3)n2)c1 | 1020 |
| Cc1oc(C2CCN(C(=O)C3CCN(S(=O)(=O)N4CCOCC4)CC3)CC2)nc1C(=O)N1CCCC1 | 677 |
| CCN(CC)S(=O)(=O)c1ccc2c(c1)N(CC(=O)N1CCN(C)CC1)C(=O)C1CCCCN21 (stereo unspecified) | 658 |
| COc1ccc(/C=C/c2cc(O)cc(OC3OC(CO)C(O)C(O)C3O)c2)cc1O (stereo unspecified) | 612 |
| O=C(CSc1ccc(NC(=O)c2cccs2)nn1)Nc1cccc(Cl)c1Cl | 942 |
| Fc1ccc(-c2noc(Cc3nnc(-c4ccc(Cl)cc4)o3)n2)cc1 | 1070 |
| Cc1ccccc1-c1nnc(CSc2nnc(NC(=O)c3cccc(F)c3)s2)o1 | 976 |
| CCn1nc(-c2nc(C(C)(C)C)no2)ccc1=O | 883 |
| COc1ccc(-c2noc(-c3nn(-c4cccc(F)c4)ccc3=O)n2)cc1 | 874 |

Continued, values first:

| RP-LC retention time [s] | SMILES |
| --- | --- |
| 864 | O=C(Nc1cc(-c2ccccn2)no1)c1ccc(Cl)cc1 |
| 690 | Cc1cc(N2CCN(C)CC2)nc2ccc(NC(=O)C(C)Oc3ccc(Cl)cc3Cl)cc12 (stereo unspecified) |
| 804 | COc1ccc(NC(=O)N2CCN(c3ccc(=O)n(-c4ccc(C)cc4)n3)CC2)c(OC)c1 |
| 725 | COc1ccc(NC(=O)N2CCC(n3c(-c4ccoc4)nc4cccnc43)C2)cc1F (stereo unspecified) |
| 1070 | COc1ccccc1NC(=O)C1Cc2ccccc2CN1S(=O)(=O)c1ccccc1 (stereo unspecified) |
| 695 | CCNc1nc(C)cc(N2CCN(C(=O)Nc3cccc(Cl)c3)CC2)n1 |
| 822 | Cc1cc(C2CCCN2C(=O)Nc2ccc(C)c(F)c2)on1 (stereo unspecified) |
| 1120 | COc1ccc(Cl)cc1NC(=O)N1CCCC1c1nc(-c2ccc(F)cc2F)no1 (stereo unspecified) |
| 987 | Cc1ccnc(N2CCCC(C(=O)N3CCC(Cc4ccccc4)CC3)C2)n1 (stereo unspecified) |
| 654 | O=C(NC1CCCC1)C1CCN(c2nc3ccc(-c4cccnc4)nc3s2)CC1 |
| 587 | COc1ccc(NC(=O)N2CCN(c3nc4ccncc4n(CC(C)C)c3=O)CC2)cc1 |
| 919 | COc1cc(Nc2ncc3c(n2)-c2ccc(Cl)cc2C(c2c(F)cccc2OC)=NC3)ccc1C(=O)O |
| 957 | CC(C)c1ccc(NC(=O)C2CCCN(c3nc4ccccc4nc3C(F)(F)F)C2)cc1 (stereo unspecified) |
| 817 | O=C(Nc1ncnc2c1CCC2)c1ccc(S(=O)(=O)N2CCCc3ccccc32)cc1 |
| 763 | O=C(NCc1ccco1)c1ccc(NC(=O)C2CCC2)cc1N1CCCCC1 |
| 628 | Cc1ccc(-c2cn3c(n2)N(C(=O)Cn2ccnc2C)CCC3)cc1 |
| 1070 | COc1ccc(-c2noc(C3CCCN3C(=O)Nc3ccccc3Br)n2)cc1 (stereo unspecified) |
| 639 | CC(C(=O)NCCCN1CCN(C2CCCCC2)CC1)n1c(=O)c(C(F)(F)F)nc2ccccc21 (stereo unspecified) |
| 680 | COc1cccc(N2CCN(C(=O)c3cn(-c4ccc(NC(C)=O)cn4)cn3)CC2)c1 |
| 717 | O=C(NC1CCN(c2cc(-c3ccccc3)[nH]n2)C1)c1cccc(F)c1 (stereo unspecified) |
| 981 | Brc1ccc(OCc2nc3c4ccccc4ncn3n2)cc1 |
| 842 | COc1cccc(CNC(=O)NCCC2CCN(S(=O)(=O)c3ccc(F)cc3)CC2)c1 |
| 565 | CC(C)n1c(CN2CCN(C)CC2)nc2cc(NC(=O)c3cccs3)ccc21 |
